Experimental data as given in ChEMBL document CHEMBL1201861, “Genomics of Drug Sensitity in Cancer screening data, Wellcome Trust Sanger Institute”.

Legend:
Assay in all cases: cells
Type in all cases: functional, cell-based, Homo sapiens
8305C = conditions: Homo sapiens, 8305C
Description: SANGER: Inhibition of human 8305C cell growth in a cell viability assay.

REH = conditions: Homo sapiens, REH;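 further: growth inhibition of REH cells determined with a cell viability read-out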
Description: SANGER: Inhibition of human REH cell growth in a cell viability assay.

OVCAR-3 = conditions: Homo sapiens, OVCAR-3;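 further: growth inhibition of human OVCAR-3 cells, determined by a cell viability assay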
Description: SANGER: Inhibition of human OVCAR-3 cell growth in a cell viability assay.

NCI-H2052 = conditions: Homo sapiens, NCI-H2052;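 further: growth inhibition of NCI-H2052 cells, read out with a cell viability assay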
Description: SANGER: Inhibition of human NCI-H2052 cell growth in a cell viability assay.

SK-CO-1 = conditions: Homo sapiens, SK-CO-1;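 further: growth inhibition of SK-CO-1 cells, determined by a viability readout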
Description: SANGER: Inhibition of human SK-CO-1 cell growth in a cell viability assay.

KARPAS-422 = conditions: Homo sapiens, KARPAS-422
Description: SANGER: Inhibition of human KARPAS-422 cell growth in a cell viability assay.

NCI-H838 = conditions: Homo sapiens, NCI-H838;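 further: growth inhibition of human NCI-H838 cells, read out by a cell viability assay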
Description: SANGER: Inhibition of human NCI-H838 cell growth in a cell viability assay.

SIMA = conditions: Homo sapiens, SIMA;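 further: growth inhibition of SIMA cells, measured with a cell viability readout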
Description: SANGER: Inhibition of human SIMA cell growth in a cell viability assay.

BPH-1 = conditions: Homo sapiens, BPH-1;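 further: cell viability assay measuring growth inhibition of human BPH-1 cells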
Description: SANGER: Inhibition of human BPH-1 cell growth in a cell viability assay.

639-V = conditions: Homo sapiens, 639-V;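 further: growth inhibition of 639-V cells, read out with a cell viability assay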
Description: SANGER: Inhibition of human 639-V cell growth in a cell viability assay.

DV-90 = conditions: Homo sapiens, DV-90;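 further: Read-out is a viability assay, with IC50 reflecting the drop in DV-90 cell growth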
Description: SANGER: Inhibition of human DV-90 cell growth in a cell viability assay.

CAL-12T = conditions: Homo sapiens, CAL-12T;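 further: growth inhibition of human CAL-12T cells, read out with a cell viability assay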
Description: SANGER: Inhibition of human CAL-12T cell growth in a cell viability assay.

OVCAR-8 = conditions: Homo sapiens, OVCAR-8;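 further: growth inhibition of human OVCAR-8 cells, read out by a cell viability assay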
Description: SANGER: Inhibition of human OVCAR-8 cell growth in a cell viability assay.

SK-LU-1 = conditions: Homo sapiens, SK-LU-1;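 further: cell viability assay measuring growth inhibition of human SK-LU-1 cells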
Description: SANGER: Inhibition of human SK-LU-1 cell growth in a cell viability assay.

HuO-3N1 = conditions: Homo sapiens, HuO-3N1;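 further: cell viability readout used to measure how strongly compounds suppress proliferation of human HuO-3N1 cells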
Description: SANGER: Inhibition of human HuO-3N1 cell growth in a cell viability assay.

OAW-28 = conditions: Homo sapiens, OAW-28;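 further: growth inhibition of OAW-28 cells, read out with a cell viability assay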
Description: SANGER: Inhibition of human OAW-28 cell growth in a cell viability assay.

MES-SA = conditions: Homo sapiens, MES-SA;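 further: growth inhibition of human MES-SA cells, read out with a cell viability assay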
Description: SANGER: Inhibition of human MES-SA cell growth in a cell viability assay.

VM-CUB-1 = conditions: Homo sapiens, VM-CUB-1;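 further: cell viability assay measuring growth inhibition of the human VM-CUB-1 cell line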
Description: SANGER: Inhibition of human VM-CUB-1 cell growth in a cell viability assay.

CA46 = conditions: Homo sapiens, CA46;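 further: growth inhibition of human CA46 cells, read out by a cell viability assay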
Description: SANGER: Inhibition of human CA46 cell growth in a cell viability assay.

HCC1954 = conditions: Homo sapiens, HCC1954;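 further: growth inhibition of human HCC1954 cells, read out with a cell viability assay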
Description: SANGER: Inhibition of human HCC1954 cell growth in a cell viability assay.

EFE-184 = conditions: Homo sapiens, EFE-184
Description: SANGER: Inhibition of human EFE-184 cell growth in a cell viability assay.

CAL-27 = conditions: Homo sapiens, CAL-27;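 further: Viability-based readout, IC50 reflecting inhibition of CAL-27 cell growth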
Description: SANGER: Inhibition of human CAL-27 cell growth in a cell viability assay.

MDA-MB-415 = conditions: Homo sapiens, MDA-MB-415
NCI-H292 = conditions: Homo sapiens, NCI-H292;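 further: growth inhibition of NCI-H292 cells, read out with a cell viability assay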
Description: SANGER: Inhibition of human NCI-H292 cell growth in a cell viability assay.

HCC1143 = conditions: Homo sapiens, HCC1143;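 further: growth inhibition of human HCC1143 cells, read out with a cell viability assay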
Description: SANGER: Inhibition of human HCC1143 cell growth in a cell viability assay.

COLO-680N = conditions: Homo sapiens, COLO-680N;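 further: cell viability assay used to measure inhibition of COLO-680N cell growth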
Description: SANGER: Inhibition of human COLO-680N cell growth in a cell viability assay.

IGR-1 = conditions: Homo sapiens, IGR-1;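 further: growth inhibition of human IGR-1 cells, read out with a cell viability assay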
Description: SANGER: Inhibition of human IGR-1 cell growth in a cell viability assay.

LCLC-103H cell line = conditions: Homo sapiens, LCLC-103H
Description: SANGER: Inhibition of human LCLC-103H cell growth in a cell viability assay.

EFO-27 = conditions: Homo sapiens, EFO-27;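 further: growth inhibition of EFO-27 cells, read out with a cell viability assay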
Description: SANGER: Inhibition of human EFO-27 cell growth in a cell viability assay.

MKN-45 = conditions: Homo sapiens, MKN-45;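 further: growth inhibition of human MKN-45 cells, measured with a cell viability assay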
Description: SANGER: Inhibition of human MKN45 cell growth in a cell viability assay.

647-V = conditions: Homo sapiens, 647-V;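 further: growth inhibition of 647-V cells, read out with a cell viability assay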
Description: SANGER: Inhibition of human 647-V cell growth in a cell viability assay.

CAL-51 = conditions: Homo sapiens, CAL-51;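 further: human CAL-51 cell line, growth inhibition read out via a cell viability assay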
Description: SANGER: Inhibition of human CAL-51 cell growth in a cell viability assay.

COLO 205 = conditions: Homo sapiens, COLO 205
Description: SANGER: Inhibition of human COLO-205 cell growth in a cell viability assay.

BFTC-905 = conditions: Homo sapiens, BFTC-905
Description: SANGER: Inhibition of human BFTC-905 cell growth in a cell viability assay.

NCI-H1734 = conditions: Homo sapiens, NCI-H1734;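 further: growth inhibition of human NCI-H1734 cells, read out with a cell viability assay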
Description: SANGER: Inhibition of human NCI-H1734 cell growth in a cell viability assay.

Compound | IC50 (8305C) | IC50 (REH) | IC50 (OVCAR-3) | IC50 (NCI-H2052) | IC50 (SK-CO-1) | IC50 (KARPAS-422) | IC50 (NCI-H838) | IC50 (SIMA) | IC50 (BPH-1) | IC50 (639-V) | IC50 (DV-90) | IC50 (CAL-12T) | IC50 (OVCAR-8) | IC50 (SK-LU-1) | IC50 (HuO-3N1) | IC50 (OAW-28) | IC50 (MES-SA) | IC50 (VM-CUB-1) | IC50 (CA46) | IC50 (HCC1954) | also measured
Cc1cc([N+](=O)[O-])ccc1NS(=O)(=O)c1cc(Cl)ccc1Cl | 3990 nM | 11500 nM | 5810 nM | 18200 nM | 13400 nM | 8260 nM | 20600 nM | 13800 nM | 12200 nM | 1610 nM | 1940 nM | 1020 nM | 4260 nM | 3270 nM | 13400 nM | 24700 nM | > 32000 nM | 8150 nM | 7160 nM | 3620 nM | IC50 (EFE-184): 5800 nM; IC50 (CAL-27): 3160 nM; IC50 (MDA-MB-415): 4700 nM; IC50 (NCI-H292): 11300 nM; IC50 (HCC1143): 1820 nM; IC50 (COLO-680N): 12500 nM; IC50 (IGR-1): 2010 nM; IC50 (LCLC-103H cell line): 5600 nM; IC50 (EFO-27): 4830 nM; IC50 (MKN-45): 2150 nM; IC50 (647-V): 3090 nM; IC50 (CAL-51): 2750 nM; IC50 (COLO 205): 2550 nM; IC50 (BFTC-905): 3650 nM; IC50 (NCI-H1734): 8730 nM
Oc1ccc2ccccc2c1SSc1c(O)ccc2ccccc12 | 4170 nM | 3370 nM | > 32000 nM | > 32000 nM | > 32000 nM | 7840 nM | > 32000 nM | > 32000 nM | > 32000 nM | > 32000 nM | > 32000 nM | 5640 nM | > 32000 nM | 18900 nM | > 32000 nM | > 32000 nM | 23900 nM | > 32000 nM | 3660 nM | > 32000 nM | IC50 (EFE-184): > 32000 nM; IC50 (CAL-27): > 32000 nM; IC50 (MDA-MB-415): > 32000 nM; IC50 (NCI-H292): > 32000 nM; IC50 (HCC1143): > 32000 nM; IC50 (COLO-680N): > 32000 nM; IC50 (IGR-1): > 32000 nM; IC50 (LCLC-103H cell line): 18500 nM; IC50 (EFO-27): > 32000 nM; IC50 (MKN-45): > 32000 nM; IC50 (647-V): > 32000 nM; IC50 (CAL-51): 3550 nM; IC50 (COLO 205): > 32000 nM; IC50 (BFTC-905): 5150 nM; IC50 (NCI-H1734): > 32000 nM
N#Cc1c(O)c2c(-c3ccc(-c4ccccc4O)cc3)csc2[nH]c1=O | > 1020 nM | 104 nM | > 1020 nM | > 1020 nM | > 1020 nM | 344 nM | > 1020 nM | > 1020 nM | > 1020 nM | > 1020 nM | > 1020 nM | > 1020 nM | > 1020 nM | > 1020 nM | > 1020 nM | > 1020 nM | > 1020 nM | > 1020 nM | 196 nM | > 1020 nM | IC50 (EFE-184): > 1020 nM; IC50 (CAL-27): > 1020 nM; IC50 (MDA-MB-415): > 1020 nM; IC50 (NCI-H292): > 1020 nM; IC50 (HCC1143): > 1020 nM; IC50 (COLO-680N): > 1020 nM; IC50 (IGR-1): > 1020 nM; IC50 (LCLC-103H cell line): > 1020 nM; IC50 (EFO-27): > 1020 nM; IC50 (MKN-45): > 1020 nM; IC50 (647-V): > 1020 nM; IC50 (CAL-51): > 1020 nM; IC50 (COLO 205): > 1020 nM; IC50 (BFTC-905): > 1020 nM; IC50 (NCI-H1734): > 1020 nM
C=C(c1ccc(C(=O)O)cc1)c1cc2c(cc1C)C(C)(C)CCC2(C)C [BEXAROTENE] | > 8000 nM | > 8000 nM | > 8000 nM | > 8000 nM | > 8000 nM | > 8000 nM | > 8000 nM | > 8000 nM | > 8000 nM | > 8000 nM | > 8000 nM | 3960 nM | > 8000 nM | > 8000 nM | > 8000 nM | > 8000 nM | > 8000 nM | > 8000 nM | > 8000 nM | > 8000 nM | IC50 (EFE-184): > 8000 nM; IC50 (CAL-27): > 8000 nM; IC50 (MDA-MB-415): > 8000 nM; IC50 (NCI-H292): > 8000 nM; IC50 (HCC1143): > 8000 nM; IC50 (COLO-680N): > 8000 nM; IC50 (IGR-1): > 8000 nM; IC50 (LCLC-103H cell line): > 8000 nM; IC50 (EFO-27): > 8000 nM; IC50 (MKN-45): > 8000 nM; IC50 (647-V): > 8000 nM; IC50 (CAL-51): > 8000 nM; IC50 (COLO 205): > 8000 nM; IC50 (BFTC-905): > 8000 nM; IC50 (NCI-H1734): > 8000 nM
CCC/C=C/C=C/C(=O)O[C@H]1/C(=C/C(=O)OC)C[C@H]2C[C@H]([C@@H](C)O)OC(=O)C[C@H](O)C[C@@H]3C[C@H](OC(C)=O)C(C)(C)[C@](O)(C[C@@H]4C/C(=C/C(=O)OC)C[C@H](/C=C/C(C)(C)[C@]1(O)O2)O4)O3 [BRYOSTATIN 1] | > 8 nM | > 8 nM | > 8 nM | > 8 nM | > 8 nM | > 8 nM | > 8 nM | > 8 nM | 6.03 nM | > 8 nM | > 8 nM | > 8 nM | > 8 nM | > 8 nM | > 8 nM | > 8 nM | > 8 nM | > 8 nM | > 8 nM | > 8 nM | IC50 (EFE-184): > 8 nM; IC50 (CAL-27): > 8 nM; IC50 (MDA-MB-415): > 8 nM; IC50 (NCI-H292): > 8 nM; IC50 (HCC1143): > 8 nM; IC50 (COLO-680N): > 8 nM; IC50 (IGR-1): > 8 nM; IC50 (LCLC-103H cell line): > 8 nM; IC50 (EFO-27): > 8 nM; IC50 (MKN-45): > 8 nM; IC50 (647-V): > 8 nM; IC50 (CAL-51): > 8 nM; IC50 (COLO 205): > 8 nM; IC50 (BFTC-905): > 8 nM; IC50 (NCI-H1734): > 8 nM
COc1cccc2c1C(=O)c1c(O)c3c(c(O)c1C2=O)C[C@@](O)(C(=O)CO)C[C@@H]3O[C@H]1C[C@H](N)[C@H](O)[C@H](C)O1 [DOXORUBICIN] | 63.1 nM | 8.11 nM | 470 nM | 160 nM | 129 nM | 193 nM | 225 nM | 382 nM | 22.1 nM | 15.9 nM | 329 nM | 20.6 nM | 61.9 nM | 12.5 nM | > 1020 nM | 179 nM | 99.5 nM | 75.4 nM | 137 nM | 541 nM | IC50 (EFE-184): > 1020 nM; IC50 (CAL-27): 32.6 nM; IC50 (MDA-MB-415): > 1020 nM; IC50 (NCI-H292): 43.8 nM; IC50 (HCC1143): > 1020 nM; IC50 (COLO-680N): 33.9 nM; IC50 (IGR-1): 33.9 nM; IC50 (LCLC-103H cell line): 20.5 nM; IC50 (EFO-27): 97.4 nM; IC50 (MKN-45): 81.5 nM; IC50 (647-V): 18.8 nM; IC50 (CAL-51): 17.3 nM; IC50 (COLO 205): 27 nM; IC50 (BFTC-905): 16.2 nM; IC50 (NCI-H1734): 53 nM
Nc1ccn([C@@H]2O[C@H](CO)[C@@H](O)C2(F)F)c(=O)n1 [GEMCITABINE] | 9.64 nM | 14.5 nM | > 1020 nM | 145 nM | 34 nM | 85.8 nM | 499 nM | 161 nM | 20.3 nM | 193 nM | > 1020 nM | 1.08 nM | 7.9 nM | < 4 nM | > 1020 nM | 45.4 nM | < 4 nM | 34.7 nM | 293 nM | > 1020 nM | IC50 (EFE-184): > 1020 nM; IC50 (CAL-27): 35.2 nM; IC50 (MDA-MB-415): > 1020 nM; IC50 (NCI-H292): 20.8 nM; IC50 (HCC1143): > 1020 nM; IC50 (COLO-680N): 75.5 nM; IC50 (IGR-1): 14.4 nM; IC50 (LCLC-103H cell line): 33.3 nM; IC50 (EFO-27): 9.05 nM; IC50 (MKN-45): 17.7 nM; IC50 (647-V): < 4 nM; IC50 (CAL-51): 191 nM; IC50 (COLO 205): > 1020 nM; IC50 (BFTC-905): < 4 nM; IC50 (NCI-H1734): 11.3 nM
